How the values were obtained:
[1] = tested on: carcinogen-induced mammary cancer; settings: up to 5 mg/kg, cited from earlier work
ErbB2 promoter = assay: Transiently transfected (episomal) RO6pGL ErbB2 promoter-reporter in MCF-7 cells; format: cell-based, human; settings: transient transfection of RO6pGL into MCF-7 cells; 0.4 μM TSA, 24 hour
Experimental: FIGS. 11A and 11B show trichostatin A (TSA) responsiveness and DNase I hypersensitivity comparisons between the genomically integrated vs. episomally introduced ErbB2 promoter-reporter construct, RO6pGL, in MCF-7 cells. FIG. 11A: Luciferase activity (relative luminometer units) of the MCF/RO6pGL-9 subline compared to parental MCF-7 cells transiently transfected with the same ErbB2 promoter-reporter plasmid (RO6pGL) and after 24 hour treatment with 0.4 μM TSA, normalized against their respective non-treatment (vehicle only) control conditions. FIG. 11B: DNase 1 hypersensitivity analysis (described in Methods) of nuclei from MCF/RO6pGL-9 vs. MCF-7 cells transiently transfected with RO6pGL, following similar culture treatments with TSA.
In an episomal context and following transient transfection of the RO6pGL construct into MCF-7 cells, TSA produced diametrically opposite (>10-fold stimulatory) effects on this same ErbB2 promoter-driven reporter (FIG. 11). Southern blot comparisons of DNase I treated MCF/R06pGL-9 cell nuclei and those from transfected MCF-7 cells bearing the episomally introduced R06pGL plasmid confirmed the lack of a discrete DNase-I hypersensitivity site in the episomal R06pGL and the presence of such a site in the genomically integrated R06pGL, similar in location and intensity to that found within the endogenous ErbB2 promoter (FIG. 11). […]

RO6 HER2 promoter = assay: Basal promoter activity of MCF-7b stable RO6 populations; format: cell-based, human; settings: 10 nM, 24 hours, serum-free media, clone and polyclonal populations
Experimental: Parental cell lines MCF-7, and MDA-453 were transfected with the construct Ro6pGL (FIG. 2) in conjunction with pcMneo construct using lipid-based transfection (Effectene) at a ratio of 20:1 reporter:selectable marker (see, FIG. 4). Monoclonal and polyclonal populations were selected in 0.5 mg/ml G418 over 2 to 4 weeks.
Reporter activity was assayed as follows: From T-150 or T-75 culture flasks, about […] cells/well were plated into a 96 well plate format for high-throughput screening. 24 hours post plating a test agent e.g. a drug from a combinatorial library, was added to the wells at various concentrations. Certain wells were used as controls (e.g. PBS or DMSO vehicle only). Replicate wells ([…] per drug concentration) were run. 24 hours after addition of the test agent the cells were lysed, a luciferase reagent was added and activity in each well was read using a high-throughput screening plate reader (labsystems Fluoroskan). Parallel plates were run for cell viability using an MTT assay (Sigma).

ESX mRNA synthesis = assay: Nuclear run-off assay of ESX mRNA synthesis in SKBR3 cells; format: cell-based, human; settings: 5 hours, 0.4 μM TSA
Experimental: The conserved and singular DNase I hypersensitivity sites found in the proximal ErbB2 and ESX promoters (12,15) were assayed as before (12). Briefly, following culture treatment of cells, nuclei isolated by mild detergent lysis in a buffer containing 10 mM Hepes pH 7.9, 1.5 mM MgCl2, 10 mM KCl, 0.4% NP-40, 10% glycerol and 1 mM DTT. […]
Nuclear run-off experiments were performed on ErbB2 overexpressing breast cancer cells to confirm the conclusion drawn from TSA induced downregulation of luciferase expression in MCF/R06pGL-9 cells that HDAC inhibitors can suppress ErbB2 promoter activity and presumably also repress ErbB2 transcription. […] Slot blot hybridization stringency was adjusted so that no signal could be detected from those control slots containing the empty plasmid.

ESX transcript = assay: Northern blot of ESX transcript levels in SKBR3 cells; format: cell-based, human; settings: 24 hours TSA treatment
Experimental: (§1) The conserved and singular DNase I hypersensitivity sites found in the proximal ErbB2 and ESX promoters (12,15) were assayed as before (12). Briefly, following culture treatment of cells, nuclei isolated by mild detergent lysis in a buffer containing 10 mM Hepes pH 7.9, 1.5 mM MgCl2, 10 mM KCl, 0.4% NP-40, 10% glycerol and 1 mM DTT. Partial DNase I digestions were carried out by varying DNase I treatment times (0-15 minutes at 37( ) at a fixed DNase I concentrations (0.5-1.0 units per 10^6 nuclei). After purifying and restricting the DNA, it was electrophoresed through 0.7% agarose gels and blotted onto nylon membranes, UV-crosslinked and hybridized with randomly ^32P-labelled ErbB2 and ESX promoter probes, as similarly performed for routine Southern blotting. For Northern blotting, total (treated vs. control) cell RNA (10 μg/sample lane) was isolated using TRIzol (Invitrogen) according to manufacturer's specifications, electrophoresed into 1% agarose-formaldehyde gels and transferred onto membranes that were then hybridized with ^32P-labelled ErbB2 and ESX cDNA probes. For transcriptional run-off assays cell nuclei were first isolated from treated and control cells as described for the DNase I studies. […]

ErbB2 protein = assay: Western blot of 185 kDa ErbB2 protein levels in breast cancer cell lines; format: cell-based, human
Experimental: as §1

## CC(/C=C/C(=O)NO)=C\[C@@H](C)C(=O)c1ccc(N(C)C)cc1 [TSA, trichostatin A]
[1]; adult or embryonic mice
  ill effects: no ill effects
[1]; ip, sc, carcinogen-induced mammary cancer
  antitumor activity: potent antitumor activity
ErbB2 promoter
  effect on episomal ErbB2 promoter-driven reporter (stimulation): > 10 fold
RO6 HER2 promoter
  basal promoter activity: decreased basal promoter activity
ESX mRNA synthesis
  ESX mRNA synthesis: preserves ESX mRNA synthesis
ESX transcript
  increase in ESX transcript levels: 5 fold
ErbB2 protein; MCF/HER2-18 cells (CMV promoter), same TSA treatment conditions
  ectopic 185 kDa ErbB2 protein level: further stimulated
ErbB2 protein; SKBR3, MDA-453 and BT-474 cells, 24 hour, 0.4 μM TSA
  endogenous 185 kDa ErbB2 protein levels (normalized to α-tubulin): marked decline

From US20120264159A1, “SCREENING SYSTEM FOR MODULATORS OF HER2 MEDIATED TRANSCRIPTION AND HER2 MODULATORS IDENTIFED THEREBY” (BUCK INSTITUTE FOR AGE RESEARCH, priority 2001, published 2012)
